Data published in the METLIN SMRT retention time set (Domingo-Almenara et al. 2019).

assay: gradient 5% acetonitrile 3 min, to 50% in 2 min, to 85% in 15 min, held 3 min, 100 µL/min; details: column: Zorbax Extend-C18 2.1 x 50 mm; eluents: water / acetonitrile, 0.1% formic acid
In short: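 Over 3 months, pure standards in mixtures of ~100 molecules were run by HPLC coupled to a quadrupole time-of-flight mass spectrometer in positive and negative ionization mode. The column was a Zorbax Extend-C18 (2.1 × 50 mm, 1.8 μm) at 100 μL/min, eluted with water and acetonitrile each holding 0.1% formic acid, with 40 μL dead and 900 μL dwell volumes. Retention time was determined from adduct peaks chosen by software and checked manually.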

Row | Compound | RP-LC retention time [s]
1 | O=C(NC1CC1)C1CCN(S(=O)(=O)c2ccc3[nH]c4c(c3c2)CCCCC4)CC1 | 862
2 | O=C(CCc1csc(NC(=O)c2cccs2)n1)Nc1ccc(F)c(Cl)c1 | 869
3 | CCc1ccccc1N(C(=O)C1CCCCC1)C1C=CS(=O)(=O)C1 (stereo not given) | 894
4 | Cc1cc(NC(=O)Cn2c(=O)n(C(C)C)c3ccc(-c4noc(C)n4)cc32)no1 | 755
5 | O=C(Cc1cccs1)N1CCN(c2ccc(-c3ccco3)nn2)CC1 | 734
6 | CCOC(=O)C1CCN(C(=O)C2CN(C(=O)c3ccc(F)c(F)c3)C2)CC1 | 696
7 | O=C(NC1CCCCCC1)c1cccnc1N1CCNC(c2ccccc2)C1 (stereo not given) | 656
8 | Cc1nc2cc(N3CCCC(C(=O)NCCN4CCOCC4)C3)cnc2nc1C (stereo not given) | 557
9 | Cn1ccnc1C(=O)N1CC(n2cc(C(=O)N3CCOCC3)nn2)C1 | 581
10 | CCCCC(=O)N(CCC)CCC | 965
11 | Cc1ccc2[nH]cc(CCNC(=O)c3cccc(NC(=O)c4nnc(C5CC5)s4)c3)c2c1 | 932
12 | O=C(O)c1cncc(NS(=O)(=O)c2ccc3c(c2)OCCO3)c1 | 611
13 | CCCCCn1c(=O)c2ccccc2n(Cc2nc(-c3cc(OC)c(OC)c(OC)c3)no2)c1=O | 646
14 | O=C(c1cn(-c2cc(-c3nc(C4CC4)no3)ccn2)cn1)N1CCCCC1 | 810
15 | CCOC(=O)c1sc2ccccc2c1S(=O)(=O)N1CCC(C(N)=O)(N2CCCCC2)CC1 | 656
16 | CCCOc1nn(CCC)cc1C(=O)N1CCCC1 | 700
17 | CCCNC(=O)Cc1nnc(-c2ccc(C)cc2)o1 | 710
18 | CCOC(=O)c1ccc(NC(=O)C2(c3cccs3)CCOCC2)cc1 | 956
19 | Cc1ccccc1OCC(=O)NCCN1CCN(S(C)(=O)=O)CC1 | 558
20 | Cc1cccc(OCc2ccc(-c3nc(C#N)c(NCCN(C)C)o3)o2)c1 | 708
21 | Cc1ccc(C)c(NC(=O)CN2C(=O)C(C(=O)N3CCCC3)Sc3ccccc32)c1 (stereo not given) | 969
22 | COc1ccc(-c2coc3cc(OC(=O)N(C)C)cc(O)c3c2=O)cc1OC | 858
23 | CN(C)c1cccc(C(=O)N2CCc3nc[nH]c3C2)c1 | 578
24 | NC(=O)c1cccc2cn(-c3ccc([C@@H]4CCCNC4)cc3)nc12 | 630

Row | Compound | RP-LC retention time [s]
25 | CCCn1c(=O)c(N2CCC(NC(=O)NC3CCCCC3)CC2)nc2ccccc21 | 953
26 | COc1ccc(N2C=C(C(=O)N3CCCC3)S(=O)(=O)c3ccc(F)cc32)cc1 | 736
27 | COc1cn(CC(=O)NCC2CCCO2)c(CN2CCC(C)CC2)cc1=O (stereo not given) | 570
28 | O=C1CC(c2cccc(F)c2)c2c(c(C(=O)O)cn2-c2ccc(F)cc2)N1 (stereo not given) | 774
29 | O=C(NC1CCCC1)c1nc(C(=O)N2CCN(c3cccc(Cl)c3)CC2)cs1 | 1020
30 | COc1cccc(S(=O)(=O)N2CCN(c3cc(C)nc(N4CCOCC4)n3)CC2)c1 | 668
31 | CC1CCN(C(=O)C2c3ccccc3CCN2C(=O)C(C)C)CC1 (stereo not given) | 883
32 | CCCC1=C(C(=O)OCC)C(c2ccccc2OC)NC(=O)N1 (stereo not given) | 797
33 | O=S(=O)(Cc1ccccc1F)N1CCOc2ccc(N3CCOCC3)cc2C1 | 861
34 | Cc1oc(C2CCN(C(=O)Cc3ccccc3Cl)CC2)nc1C(=O)N1CCOCC1 | 716
35 | O=C(NC1CCCCCC1)C1CCN(S(=O)(=O)c2cc(C(=O)N3CCCCCC3)cs2)CC1 | 956
36 | CCc1nc2cc(-c3noc(Cc4c(F)cccc4Cl)n3)ccc2o1 | 1150
37 | FC(F)(F)c1cccc(-c2ccc(CNCC3CCCO3)o2)c1 (stereo not given) | 703
38 | Cc1ccc2c(C(=O)NCCc3cccs3)cc(NC(=O)C3CC3)cc2n1 | 633
39 | CCN1CCN(CCNC(=O)c2c(N3CCCC3=O)c3cc(F)ccc3n2CC)CC1 | 614
40 | CN1CCCN(C(=O)C2CC(=O)N(c3ccc4c(c3)CCN4C(=O)C3CC3)C2)CC1 (stereo not given) | 564
41 | COc1ccc(NC(=O)Cn2nc3nc(N4CCCC(C)C4)ccn3c2=O)cc1F (stereo not given) | 775
42 | CN(CC1(C)CCOCC1)S(=O)(=O)c1cc(F)ccc1F | 614
43 | CCCCCC#CC[C@@H](O)/C=C/C=C/C=C\[C@@H](O)CCCC(=O)O | 991
44 | CCCNS(=O)(=O)c1c(C)sc(C)c1-c1cc(C(F)(F)F)on1 | 1130
45 | Cn1cc2c3c(cccc31)CN(C(=O)c1ccc(Cl)cc1)CC2 | 988
46 | Cc1ccc(S(=O)(=O)N2C[C@@H](F)C[C@H]2C(=O)N2CCCCC2)cc1Cl | 826
47 | COc1cc(NC(=O)C2CCN(C(=O)C3Sc4ccccc4NC3=O)CC2)cc(OC)c1OC (stereo not given) | 707

The next lines start with the values.

Row | RP-LC retention time [s] | Compound
48 | 1160 | CCCN1C(=O)COc2ccc(-c3csc(NC(=O)c4cccc(Br)c4)n3)cc21
49 | 807 | CN(c1ccccc1)S(=O)(=O)c1ccc(C(=O)Nc2nccs2)cc1
50 | 934 | CCCn1c(=O)sc2cc(S(=O)(=O)N3CCC(C(=O)NCc4ccc(F)cc4)CC3)ccc21
51 | 1100 | CCN1C(=O)c2cc(S(=O)(=O)Nc3cc(C)ccc3C)ccc2Oc2cccnc21
52 | 1120 | COc1ccc(NC(=O)c2cc(C)n3nc(-c4ccsc4)cc3n2)cc1
53 | 958 | CCOC(=O)Cn1c(=O)c2c(nc3n2CC(C)CN3c2ccc(OCC)cc2)n(C)c1=O (stereo not given)
54 | 815 | COc1ccc(-c2nnc(N3CCC(C(=O)NC(C)c4ccc(OC)cc4)CC3)o2)cc1 (stereo not given)
55 | 699 | Cc1nc2cc(N3CC(C(=O)NCc4ccccc4F)CC3=O)ccc2o1 (stereo not given)
56 | 1130 | Cc1cc(C)c2nc(-c3ccccc3Br)cc(C(=O)O)c2c1
57 | 967 | CC(C)c1noc(-c2cc(=O)n(CC(=O)Nc3cccc(C#N)c3)c3ccccc23)n1
58 | 798 | Cc1cc(C)c(Nc2ccnc(Nc3ccc(C#N)cc3)n2)c(C)c1
59 | 799 | Cc1ccc(-c2cn3c(CC(=O)NCc4cccs4)csc3n2)cc1C
60 | 650 | Cc1cccc(-n2nnc(C(=O)O)c2-c2cccnc2)c1
61 | 722 | C=CCn1c(=O)c(=O)n(Cc2ccc(C(=O)N3CCN(c4ncccn4)CC3)cc2)c2ccccc21
62 | 668 | Cc1c(CCC(=O)NCC2CCCO2)c(=O)n2nc(-c3ccccc3)nc2n1C (stereo not given)
63 | 805 | Cc1cc(NC(=O)NCCCSc2nc3ccccc3s2)no1
64 | 686 | Cc1cc(S(=O)(=O)Nc2cccn3cnnc23)ccc1F
65 | 932 | CCOC(=O)c1cccc(N2C=C(C(=O)OC)S(=O)(=O)c3cc(F)ccc32)c1
66 | 804 | CCC(Oc1ccc(=O)n(-c2ccc(F)cc2)n1)C(=O)NCCC(C)C (stereo not given)
67 | 818 | COC(=O)c1cc(S(=O)(=O)N2CCCC2C(=O)Nc2ccc(OC)cc2)cn1C (stereo not given)
68 | 1210 | CCc1nc2cc(-c3noc(-c4cccc(OC)c4)n3)ccc2o1
69 | 984 | COc1cccc(-c2ccc(=O)n(Cc3nc(-c4ccc(F)cc4)no3)n2)c1

Row | RP-LC retention time [s] | Compound
70 | 663 | CC(=O)Nc1ccc(-n2cnc(C(=O)NCc3ccccc3)c2)nc1
71 | 771 | COc1ccc2[nH]cc(CCN3CC(C(=O)Nc4cccc(C)c4C)CC3=O)c2c1 (stereo not given)
72 | 691 | O=C(CCc1c(-c2ccc(F)cc2)nc2ccccn12)Nc1ccccc1C(F)(F)F
73 | 679 | CC(=O)NCC(=O)NCc1nn(Cc2ccccc2)c2ccccc12
74 | 964 | O=C1C(NS(=O)(=O)c2ccc(C(F)(F)F)cc2)CCN1c1ccc(F)cc1 (stereo not given)
75 | 671 | Cc1ccc2c(C(=O)NCc3ccccc3C)cc(NC(=O)C(C)C)cc2n1
76 | 816 | O=C(CCC(=O)Nc1noc2ccccc12)NCCc1ccc(Cl)cc1
77 | 1070 | CCCCOC(=O)c1ccc(Nc2nc(C(=O)OCC)nc3ccccc23)cc1
78 | 898 | Cc1noc(-c2cccc(OC3CN(C(=O)c4cccn4C)C3)c2)n1
79 | 814 | COc1ccc(NC(=O)Cn2nc3c(Oc4cccc(F)c4)nccn3c2=O)cc1
80 | 848 | Clc1ccc(Nc2nc(-c3ccncc3)nc3ccccc23)cc1
81 | 1020 | COc1cc(-c2noc(Cn3nc(-c4ccc(Br)cc4)ccc3=O)n2)cc(OC)c1OC
82 | 1180 | CCn1nccc1-c1cccc(-c2noc(-c3ccc(Br)o3)n2)c1
83 | 773 | CCn1nnc2ccc(-c3noc(CNC(=O)c4ccccc4)n3)cc21
84 | 1050 | O=C(NCc1cccc(Br)c1)C1CCCN(c2nccnc2Oc2ccccc2)C1 (stereo not given)
85 | 781 | CCn1cc(S(=O)(=O)Nc2cccc(C#N)c2)c2cccnc21
86 | 979 | CCOC(=O)c1c(NC(=O)C2CCN(S(C)(=O)=O)CC2)sc2ccccc12
87 | 1010 | Cc1ccc(NC(=O)CSc2nnc3c4cc(-c5ccc(Cl)cc5)nn4ccn23)cc1F
88 | 1030 | CCc1nc(-c2ccc3c(c2)CCN3C(=O)Cc2ccc(F)cc2)no1
89 | 980 | CCN1C(=O)COc2ccc(-c3csc(NC(=O)c4ccccc4Br)n3)cc21
90 | 913 | CCOc1ccc(S(=O)(=O)NCc2c(-c3ccccc3)nc3sc(C)nn23)cc1
